Here are results for 8 compounds from ChEMBL document CHEMBL1201862, “PubChem BioAssay data set” (2004).

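Exposure lasted 48 hours, with cells grown in 96-well plates and compounds tested at five concentrations. GI50 = concentration required for 50% inhibition of growth.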 Activity calls are given as the source filed them. Cut-off read from the data, not from the text of the source: active = GI50 up to about 1.1 µM and inactive = higher.

What all share (test): inhibition of tumour cell growth, NCI panel, 48 h
Test [1] concerns 786-0.
The test system of test [2] is A549.
Test [3] relates to HCT-15.
The subject of test [4] is HL-60.
The test system of test [5] is HOP-62.
In test [6] the test system is HT-29.
Test [7] concerns IGROV-1.
Test [8] concerns MDA-MB-231.
The test system of test [9] is Malme-3M.
Test [10] relates to OVCAR-3.
Test [11] concerns OVCAR-4.
In test [12] the test system is OVCAR-5.
For test [13], the system named is SF-295.
The test system of test [14] is SK-MEL-28.
The test system of test [15] is SN12C.
Test [16] relates to SNB-19.
Test [17] concerns SR.
Test [18] has as its system U-251.
The test system of test [19] is UACC-257.
Test [20] concerns UACC-62.

Turning to `O=C1c2ccccc2C(=O)N1CCCSc1ccccc1`, the GI50 is > 100 µM (inactive) in test [1]; 76.2 µM (inactive) in test [2]; 92.7 µM in test [3]; 75.7 µM (inactive) in test [4]; > 100 µM (inactive) in [5]; 31.2 µM (inactive) in test [6]. Also, the GI50 was 93.8 µM (inactive) in test [7]; > 100 µM (inactive) in test [8]; > 100 µM (inactive) in test [9]; 28.8 µM (inactive) in test [10]; 71.9 µM (inactive) in test [11]; > 100 µM (inactive) in [12]. For the same compound, the GI50 in test [13] was 22.6 µM (inactive); in test [14], > 100 µM (inactive); in test [15], 71.3 µM (inactive); in [16], > 100 µM (inactive); in test [17] it was 31.8 µM (inactive); in test [18], 91.4 µM (inactive). The GI50 was 39.7 µM (inactive) in test [19] and 71.6 µM (inactive) in test [20].

Turning to `CCOC(=O)Cc1c(C(=O)OCC)[n+]([O-])c2cc(Cl)c(Cl)cc2[n+]1[O-]`, the GI50 was 1.54 µM (inactive) in test [1]; 1.76 µM (inactive) in test [2]; 1.42 µM in test [3]; 2.81 µM (inactive) in test [4]; 1.95 µM (inactive) in [5]; 1.94 µM (inactive) in test [6]. Further, the GI50 in [7] was 1.01 µM (active); in test [8], 2.69 µM (inactive); in test [9], 1.4 µM (inactive); in test [10] it was 1.87 µM (inactive); in [11], 1.89 µM (inactive); in [12], 2.58 µM (inactive). Moreover, the GI50 in [13] was 3.66 µM (inactive); in [14], 4.68 µM (inactive); in test [15], 2.49 µM (inactive); in test [16], 3.5 µM (inactive); in test [17], 0.336 µM (active); in [18], 2.96 µM (inactive). The GI50 in test [19] was 2.22 µM (inactive); in test [20], 2.18 µM (inactive).

Take `Cc1cc(Nc2ccc(/N=N/c3ccc(O)c4ncccc34)cc2)nc(C)n1`: the GI50 in test [1] is 12.6 µM (inactive); in test [2], 9.82 µM (inactive); in test [3], 4.37 µM; in test [4], 3.97 µM (inactive); in test [5] it was 15.9 µM (inactive); in test [6], 31.2 µM (inactive). In addition, the GI50 in test [7] is 8.57 µM (inactive); in test [8], 24.9 µM (inactive); in test [9], 18.6 µM (inactive); in [10], 7.76 µM (inactive); in test [11], 18 µM (inactive); in [12], 35.2 µM (inactive). For the same compound, the GI50 in test [13] was 18.6 µM (inactive); in test [14], 11.2 µM (inactive); in [15], 10.4 µM (inactive); in [16], 8.53 µM (inactive); in test [17], 6.34 µM (inactive); in test [18], 8.13 µM (inactive). For the same compound, the values for the GI50 in [19] and in [20] were 16.6 µM (inactive) and 6.38 µM (inactive), respectively.

Take `CC1CC[C@@]2(OC1)OC1C[C@H]3[C@@H]4CC=C5CC(OC6OC(CO)C(OC7OC(CO)C(O)C(OC8OCC(O)C(O)C8O)C7OC7OC(CO)C(O)C(O)C7O)C(O)C6O)CCC5(C)[C@H]4CCC3(C)C1[C@@H]2C` (stereo not given in full): the GI50 is 5.9 µM (inactive) in test [1]; 4.38 µM (inactive) in test [2]; 14.9 µM in test [3]; 4.9 µM (inactive) in [4]; 4.09 µM (inactive) in test [5]; 5.08 µM (inactive) in test [6]. For the same compound, the GI50 in test [7] is 3.94 µM (inactive); in test [8], 4.66 µM (inactive); in [9], > 25 µM (inactive); in test [10], 4.93 µM (inactive); in [11] it was 6.58 µM (inactive); in [12], 8.51 µM (inactive). Further, the GI50 in [13] was 7.11 µM (inactive); in test [14], 12.3 µM (inactive); in test [15] it was 4.58 µM (inactive); in test [16], 10.3 µM (inactive); in [17] it was 7.23 µM (inactive); in test [18], 4.68 µM (inactive). Further, the GI50 in [19] was 6.47 µM (inactive); in test [20], 21.7 µM (inactive).

On to `[O-][S+](Nc1ccccc1)c1ccc(-c2ccccc2)cc1` (stereo not given), for which the GI50 in [1] was > 100 µM (inactive); in test [2], > 100 µM (inactive); in test [3], more than 100 µM; in test [4] it was > 100 µM (inactive); in test [5] it was > 100 µM (inactive); in [6], > 100 µM (inactive). Moreover, the GI50 was > 100 µM (inactive) in [7]; > 100 µM (inactive) in test [8]; > 100 µM (inactive) in test [9]; > 100 µM (inactive) in test [10]; 38.1 µM (inactive) in [11]; > 100 µM (inactive) in test [12]. Further, the GI50 in [13] was 55.8 µM (inactive); in test [14] it was > 100 µM (inactive); in test [15] it was > 100 µM (inactive); in test [16] it was > 100 µM (inactive); in test [17] it was > 100 µM (inactive); in test [18] it was > 100 µM (inactive). The GI50 in test [19] is > 100 µM (inactive); in test [20], 47.4 µM (inactive).

`COC(=O)CCC(=O)c1ccc2c(c1)CC1(C2)Cc2ccc3c(c2C1)CCCC3=O` (stereo not given): the GI50 in test [1] was 29.9 µM (inactive); in test [2], > 57 µM (inactive); in test [3], 8.15 µM; in test [4], 3.94 µM (inactive); in test [5], > 53.5 µM (inactive); in test [6], 11.2 µM (inactive). In addition, the GI50 in test [7] was 21.9 µM (inactive); in [8], > 73.5 µM (inactive); in test [9] it was 18.4 µM (inactive); in test [10], 10.1 µM (inactive); in [11], 24.1 µM (inactive); in [12], 40.1 µM (inactive). The GI50 in [13] is 26 µM (inactive); in test [14], 25.5 µM (inactive); in test [15] it was 38.1 µM (inactive); in [16] it was 27.2 µM (inactive); in test [17], 0.297 µM (active); in [18], 25 µM (inactive). Besides, the GI50 in [19] is 18.9 µM (inactive); in test [20], > 26.1 µM (inactive).

For the compound `COc1ccc(/C=C(/C(=O)c2ccc(Cl)cc2)N2C=CC=CC2=C(C#N)C#N)cc1OC`, the GI50 is 1.94 µM (inactive) in [1]; 14.4 µM (inactive) in test [2]; 2.17 µM in test [3]; 2.37 µM (inactive) in test [4]; 20.5 µM (inactive) in [5]; 5.01 µM (inactive) in [6]. In addition, the GI50 in test [7] is 5.09 µM (inactive); in [8] it was 6.24 µM (inactive); in test [9] it was 0.914 µM (active); in test [10], 3.72 µM (inactive); in [11] it was 6.58 µM (inactive); in [12] it was 16.2 µM (inactive). Besides, the GI50 in test [13] is 28.5 µM (inactive); in [14], 3.4 µM (inactive); in test [15], 17.4 µM (inactive); in [16], 15.1 µM (inactive); in test [17], 2.35 µM (inactive); in test [18] it was 12.1 µM (inactive). The results for the GI50 in test [19] and in test [20] were 6 µM (inactive) and 14.9 µM (inactive), respectively.

As to `O=S(=O)(O)C1CCC(O)C2NCCCC21` (stereo not given), the GI50 is > 100 µM (inactive) in test [1]; > 100 µM (inactive) in test [2]; more than 100 µM in [3]; 20.7 µM (inactive) in test [4]; > 100 µM (inactive) in [5]; > 100 µM (inactive) in [6]. The GI50 in test [7], in test [8], in test [9], in test [10], in [11] and in [12] was > 100 µM (inactive) each time. In addition, the GI50 in [13], in [14], in [15], in [16], in test [17] and in test [18] was > 100 µM (inactive) throughout. Besides, the GI50 in test [19] and in test [20] was > 100 µM (inactive) in each case.
